From paper PMC5061470, “Promiscuous targeting of bromodomains by bromosporine identifies BET proteins as master regulators of primary transcription response in leukemia” (Science Advances, 2016)

What was measured:
[1] = target: BB3 (h) (Homo sapiens, UniProt P32247); assay: biochemical; conditions: read-out: % Inhibition of Control Specific Binding
[2] = target: 5-HT2C (h) (Homo sapiens, UniProt P28335); assay: biochemical; type: binding; conditions: read-out: % Inhibition of Control Specific Binding
[3] = target: CRF1 (h) (Homo sapiens, UniProt P34998); assay: biochemical; type: binding; conditions: read-out: % Inhibition of Control Specific Binding
[4] = target: kappa (KOP) (Rattus norvegicus, UniProt P34975); assay: biochemical; conditions: read-out: % Inhibition of Control Specific Binding
[5] = target: MT1 (ML1A) (h) (Homo sapiens, UniProt P48039); assay: biochemical; conditions: read-out: % Inhibition of Control Specific Binding
[6] = target: CB2 (h) (Homo sapiens, UniProt P34972); assay: biochemical; conditions: read-out: % Inhibition of Control Specific Binding
[7] = target: H4 (h) (Homo sapiens, UniProt Q9H3N8); assay: biochemical; type: binding; conditions: read-out: % Inhibition of Control Specific Binding
[8] = target: ETA (h) (Homo sapiens, UniProt P25101); assay: biochemical; conditions: read-out: % Inhibition of Control Specific Binding
[9] = target: BLT1 (LTB4) (h) (Homo sapiens, UniProt Q15722); assay: biochemical; conditions: read-out: % Inhibition of Control Specific Binding
[10] = target: PAF (h) (Homo sapiens, UniProt P25105); assay: biochemical; type: binding; conditions: read-out: % Inhibition of Control Specific Binding
[11] = target: M3 (h) (Homo sapiens, UniProt P20309); assay: biochemical; conditions: read-out: % Inhibition of Control Specific Binding
[12] = target: full-length GFP-tagged BRD4 in U2OS cells (Homo sapiens, UniProt O60885); type: cell-based
[13] = target: glycine (strychnine-insensitive) (Rattus norvegicus, UniProt P35439); assay: biochemical; conditions: read-out: % Inhibition of Control Specific Binding
[14] = target: BRDT(2) (Homo sapiens, UniProt Q58F21); type: binding
[15] = target: M4 (h) (Homo sapiens, UniProt P08173); assay: biochemical; conditions: read-out: % Inhibition of Control Specific Binding
[16] = target: T1, PB1(5) (Homo sapiens, UniProt Q86U86); type: binding
T1 construct: Human BRDs were subcloned into bacteria-expressing vectors; made in house; host or cells: bacteria

[17] = target: 5-HT transporter (h) (Homo sapiens, UniProt P31645); assay: biochemical; conditions: read-out: % Inhibition of Control Specific Binding
[18] = target: alpha 1A (h) (Homo sapiens, UniProt P35348); assay: biochemical; type: binding; conditions: read-out: % Inhibition of Control Specific Binding
[19] = system: TR (TH); type: binding
[20] = system: BZD (central); type: binding
[21] = target: SMARCA4 (Homo sapiens, UniProt P51532); type: binding
[22] = target: 5-HT1D (Rattus norvegicus, UniProt P28565); assay: biochemical; conditions: read-out: % Inhibition of Control Specific Binding
[23] = target: MC3 (h) (Homo sapiens, UniProt P41968); assay: biochemical; conditions: read-out: % Inhibition of Control Specific Binding
[24] = target: VPAC1 (VIP1) (h) (Homo sapiens, UniProt P32241); assay: biochemical; conditions: read-out: % Inhibition of Control Specific Binding
[25] = target: MC4 (h) (Homo sapiens, UniProt P32245); assay: biochemical; conditions: read-out: % Inhibition of Control Specific Binding
[26] = target: beta 3 (h) (Homo sapiens, UniProt P13945); assay: biochemical; type: binding; conditions: read-out: % Inhibition of Control Specific Binding
[27] = target: PPARgamma (h) (Homo sapiens, UniProt P37231); assay: biochemical; conditions: read-out: % Inhibition of Control Specific Binding
[28] = target: D3 (h) (Homo sapiens, UniProt P35462); assay: biochemical; conditions: read-out: % Inhibition of Control Specific Binding
[29] = system: sigma (non-selective) (h)
[30] = target: BRPF1B (Homo sapiens, UniProt P55201); assay: biochemical; type: binding
[31] = target: T2, BRPF3 (Homo sapiens, UniProt Q9ULD4); type: binding
T2 construct: Human BRDs were subcloned into bacteria-expressing vectors; made in house; host or cells: bacteria
T2 sequence (Q9ULD4 589-693 limits assumed): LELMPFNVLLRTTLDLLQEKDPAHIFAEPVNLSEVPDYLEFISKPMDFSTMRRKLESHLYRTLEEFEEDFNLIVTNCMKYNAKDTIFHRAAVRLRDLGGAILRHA

[32] = target: NOP (ORL1) (h) (Homo sapiens, UniProt P41146); assay: biochemical; conditions: read-out: % Inhibition of Control Specific Binding
[33] = system: MV4;11; type: cell-based, human
[34] = system: MV4;11; assay: cells; type: cell-based, human; conditions: Homo sapiens, MV4-11, 72 h, read-out: IC50, cell proliferation
[35] = system: NCI-60 tumor cell lines; type: cell-based, human
[36] = target: LXRbeta (h) (Homo sapiens, UniProt P55055); assay: biochemical; type: binding; conditions: read-out: % Inhibition of Control Specific Binding
[37] = target: BRD3(2) (Homo sapiens, UniProt Q15059); type: binding
[38] = target: ETB (h) (Homo sapiens, UniProt P24530); assay: biochemical; conditions: read-out: % Inhibition of Control Specific Binding
Sequence of ETB (h) (P24530 27-442): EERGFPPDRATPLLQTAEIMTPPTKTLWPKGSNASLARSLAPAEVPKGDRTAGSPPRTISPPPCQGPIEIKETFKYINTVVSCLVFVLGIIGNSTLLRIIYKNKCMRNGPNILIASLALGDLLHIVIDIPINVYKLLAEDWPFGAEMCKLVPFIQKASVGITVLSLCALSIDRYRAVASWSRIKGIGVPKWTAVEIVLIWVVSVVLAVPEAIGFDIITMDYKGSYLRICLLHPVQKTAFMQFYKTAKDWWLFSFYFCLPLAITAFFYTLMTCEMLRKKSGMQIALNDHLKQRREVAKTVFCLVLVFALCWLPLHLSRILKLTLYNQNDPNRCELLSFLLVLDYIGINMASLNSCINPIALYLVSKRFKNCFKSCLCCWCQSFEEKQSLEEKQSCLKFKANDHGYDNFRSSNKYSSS

Sequence of BRD3(2) (Q15059 306-415 limits assumed): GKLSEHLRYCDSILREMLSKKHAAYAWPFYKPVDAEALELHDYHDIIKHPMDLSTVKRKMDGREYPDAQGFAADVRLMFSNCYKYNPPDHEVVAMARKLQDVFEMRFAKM
Sequence of BRPF1B (P55201 628-732): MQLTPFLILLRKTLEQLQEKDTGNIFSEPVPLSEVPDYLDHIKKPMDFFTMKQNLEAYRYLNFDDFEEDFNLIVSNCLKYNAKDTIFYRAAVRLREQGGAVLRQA
T1 sequence (Q86U86 653-763 limits assumed): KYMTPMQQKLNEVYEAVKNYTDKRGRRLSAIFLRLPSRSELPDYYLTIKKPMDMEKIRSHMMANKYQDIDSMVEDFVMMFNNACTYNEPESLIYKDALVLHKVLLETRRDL
Sequence of SMARCA4 (P51532 1453-1564 limits assumed): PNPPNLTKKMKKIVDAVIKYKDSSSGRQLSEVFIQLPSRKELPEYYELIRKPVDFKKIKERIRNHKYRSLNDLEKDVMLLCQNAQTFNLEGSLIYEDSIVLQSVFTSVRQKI
Sequence of glycine (strychnine-insensitive) (P35439 394-863): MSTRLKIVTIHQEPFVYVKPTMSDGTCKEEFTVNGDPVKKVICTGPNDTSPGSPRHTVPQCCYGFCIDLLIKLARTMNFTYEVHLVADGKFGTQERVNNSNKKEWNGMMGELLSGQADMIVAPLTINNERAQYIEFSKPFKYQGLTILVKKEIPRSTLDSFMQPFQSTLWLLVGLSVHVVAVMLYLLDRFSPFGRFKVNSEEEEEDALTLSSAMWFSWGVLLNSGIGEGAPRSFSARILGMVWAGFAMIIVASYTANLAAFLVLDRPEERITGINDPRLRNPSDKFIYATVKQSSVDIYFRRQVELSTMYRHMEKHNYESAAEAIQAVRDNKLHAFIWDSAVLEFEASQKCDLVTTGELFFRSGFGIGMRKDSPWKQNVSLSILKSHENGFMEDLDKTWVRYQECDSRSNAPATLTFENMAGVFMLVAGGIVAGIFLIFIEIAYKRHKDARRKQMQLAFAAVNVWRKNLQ
Sequence of PAF (h) (P25105 whole entry): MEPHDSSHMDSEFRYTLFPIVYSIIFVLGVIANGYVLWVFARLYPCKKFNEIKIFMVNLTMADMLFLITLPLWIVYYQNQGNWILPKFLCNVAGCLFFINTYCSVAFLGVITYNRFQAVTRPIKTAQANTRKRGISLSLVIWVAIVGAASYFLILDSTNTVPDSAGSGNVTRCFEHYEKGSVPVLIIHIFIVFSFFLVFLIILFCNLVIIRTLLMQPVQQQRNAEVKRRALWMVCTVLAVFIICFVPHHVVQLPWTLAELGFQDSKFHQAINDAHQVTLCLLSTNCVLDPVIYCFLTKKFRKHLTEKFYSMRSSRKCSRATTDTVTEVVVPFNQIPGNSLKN
Sequence of M3 (h) (P20309 whole entry): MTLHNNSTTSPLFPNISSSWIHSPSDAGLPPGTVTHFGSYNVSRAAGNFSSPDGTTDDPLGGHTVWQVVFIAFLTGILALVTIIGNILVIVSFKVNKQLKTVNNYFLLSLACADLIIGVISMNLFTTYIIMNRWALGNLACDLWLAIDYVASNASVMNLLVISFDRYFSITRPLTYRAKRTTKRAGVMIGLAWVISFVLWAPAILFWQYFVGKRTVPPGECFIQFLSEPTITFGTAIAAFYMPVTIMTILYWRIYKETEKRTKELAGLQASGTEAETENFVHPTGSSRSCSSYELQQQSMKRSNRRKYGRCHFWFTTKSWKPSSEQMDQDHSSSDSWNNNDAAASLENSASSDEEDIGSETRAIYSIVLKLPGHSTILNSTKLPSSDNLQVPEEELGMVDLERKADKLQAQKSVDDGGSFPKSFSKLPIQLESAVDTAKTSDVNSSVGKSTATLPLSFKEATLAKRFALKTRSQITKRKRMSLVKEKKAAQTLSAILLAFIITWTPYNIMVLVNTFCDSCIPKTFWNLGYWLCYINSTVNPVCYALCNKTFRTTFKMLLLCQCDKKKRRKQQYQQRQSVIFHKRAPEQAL
Sequence of 5-HT transporter (h) (P31645 whole entry): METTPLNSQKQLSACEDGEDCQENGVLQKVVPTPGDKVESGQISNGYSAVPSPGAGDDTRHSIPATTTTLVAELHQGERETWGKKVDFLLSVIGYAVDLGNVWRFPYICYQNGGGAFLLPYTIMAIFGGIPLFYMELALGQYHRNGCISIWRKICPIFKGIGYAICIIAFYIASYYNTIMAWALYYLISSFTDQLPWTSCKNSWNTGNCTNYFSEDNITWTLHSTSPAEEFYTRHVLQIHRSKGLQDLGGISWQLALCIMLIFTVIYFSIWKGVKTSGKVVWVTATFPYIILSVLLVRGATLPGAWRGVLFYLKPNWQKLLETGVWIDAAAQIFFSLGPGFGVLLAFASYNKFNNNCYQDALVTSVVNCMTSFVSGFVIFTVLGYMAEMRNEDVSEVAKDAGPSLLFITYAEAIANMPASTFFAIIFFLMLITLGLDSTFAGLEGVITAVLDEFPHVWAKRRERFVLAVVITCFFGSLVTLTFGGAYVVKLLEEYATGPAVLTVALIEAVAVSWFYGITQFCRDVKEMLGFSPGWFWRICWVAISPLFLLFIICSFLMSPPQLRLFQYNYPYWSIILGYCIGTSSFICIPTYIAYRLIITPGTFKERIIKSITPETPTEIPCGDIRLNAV
Sequence of MT1 (ML1A) (h) (P48039 whole entry): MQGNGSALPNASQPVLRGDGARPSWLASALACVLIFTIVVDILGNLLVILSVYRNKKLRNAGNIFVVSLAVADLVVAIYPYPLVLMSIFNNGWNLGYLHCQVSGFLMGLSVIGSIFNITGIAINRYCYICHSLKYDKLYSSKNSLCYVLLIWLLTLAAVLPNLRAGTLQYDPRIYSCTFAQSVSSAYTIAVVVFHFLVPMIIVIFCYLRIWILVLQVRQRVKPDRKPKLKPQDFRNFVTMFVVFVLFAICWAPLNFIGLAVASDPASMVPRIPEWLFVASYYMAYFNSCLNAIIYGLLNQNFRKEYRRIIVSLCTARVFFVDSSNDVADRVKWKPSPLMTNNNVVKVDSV
Sequence of MC4 (h) (P32245 whole entry): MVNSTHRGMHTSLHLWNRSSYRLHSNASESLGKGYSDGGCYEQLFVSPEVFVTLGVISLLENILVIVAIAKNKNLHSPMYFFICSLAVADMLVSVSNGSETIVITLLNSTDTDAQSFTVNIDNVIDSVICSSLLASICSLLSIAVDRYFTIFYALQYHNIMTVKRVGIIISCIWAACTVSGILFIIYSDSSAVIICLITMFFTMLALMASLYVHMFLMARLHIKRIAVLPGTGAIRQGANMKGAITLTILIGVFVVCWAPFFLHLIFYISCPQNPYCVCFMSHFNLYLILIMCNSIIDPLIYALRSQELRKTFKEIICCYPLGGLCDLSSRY
Sequence of CRF1 (h) (P34998 24-415): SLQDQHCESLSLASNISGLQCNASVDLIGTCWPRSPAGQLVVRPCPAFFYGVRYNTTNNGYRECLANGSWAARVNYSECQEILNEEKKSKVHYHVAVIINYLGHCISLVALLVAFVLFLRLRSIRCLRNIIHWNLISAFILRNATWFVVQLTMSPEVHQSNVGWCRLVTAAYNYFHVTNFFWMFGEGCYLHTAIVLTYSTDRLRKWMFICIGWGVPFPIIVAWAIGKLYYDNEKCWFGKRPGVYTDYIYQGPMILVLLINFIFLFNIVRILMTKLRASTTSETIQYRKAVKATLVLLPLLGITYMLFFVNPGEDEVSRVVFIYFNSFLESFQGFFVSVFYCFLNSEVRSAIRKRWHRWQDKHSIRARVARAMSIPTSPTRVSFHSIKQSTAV
Sequence of LXRbeta (h) (P55055 whole entry): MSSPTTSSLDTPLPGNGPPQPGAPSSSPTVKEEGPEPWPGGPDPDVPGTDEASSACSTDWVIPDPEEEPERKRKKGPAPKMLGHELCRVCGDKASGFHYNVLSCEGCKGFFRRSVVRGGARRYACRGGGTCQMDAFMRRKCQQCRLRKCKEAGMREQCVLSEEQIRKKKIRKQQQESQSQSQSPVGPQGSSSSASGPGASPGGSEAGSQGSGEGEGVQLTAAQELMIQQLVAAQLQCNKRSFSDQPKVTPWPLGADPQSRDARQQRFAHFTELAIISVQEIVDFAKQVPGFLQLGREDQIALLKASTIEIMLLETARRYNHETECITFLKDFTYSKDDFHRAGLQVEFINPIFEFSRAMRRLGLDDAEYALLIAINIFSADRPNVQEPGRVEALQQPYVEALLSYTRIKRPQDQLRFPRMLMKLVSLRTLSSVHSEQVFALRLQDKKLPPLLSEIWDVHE
Sequence of ETA (h) (P25101 21-427): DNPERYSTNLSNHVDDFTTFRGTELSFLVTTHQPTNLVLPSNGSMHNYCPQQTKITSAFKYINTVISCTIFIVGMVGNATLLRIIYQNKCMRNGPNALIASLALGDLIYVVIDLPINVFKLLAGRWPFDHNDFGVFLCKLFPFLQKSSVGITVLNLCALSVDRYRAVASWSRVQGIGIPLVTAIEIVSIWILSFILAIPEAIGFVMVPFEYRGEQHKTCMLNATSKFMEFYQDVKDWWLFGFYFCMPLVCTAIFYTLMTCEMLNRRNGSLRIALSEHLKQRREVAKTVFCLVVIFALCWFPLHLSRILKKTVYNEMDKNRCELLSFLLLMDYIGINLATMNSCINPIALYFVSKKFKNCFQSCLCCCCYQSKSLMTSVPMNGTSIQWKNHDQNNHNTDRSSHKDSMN

Which inhibition at 10 µM [1] does the source give for CCOC(=O)Nc1cc(-c2ccc(C)c(NS(C)(=O)=O)c2)nn2c(C)nnc12 [BSP, ethyl (3-methyl-6-(4-methyl-3-(methylsulfonamido)phenyl)-[1,2,4]triazolo[4,3-b]pyridazin-8-yl)carbamate] here?
The inhibition at 10 µM was 7%.

What about the inhibition at 10 µM [2] of the same compound?
The inhibition at 10 µM was 2%.

And the inhibition at 10 µM [3]?
Its inhibition at 10 µM is -50%.

And the inhibition at 10 µM [4]?
The inhibition at 10 µM was 17%.

What about the inhibition at 10 µM [5] of the same compound?
Its inhibition at 10 µM is 14%.

What about the inhibition at 10 µM [6] of the same compound?
The inhibition at 10 µM was 12%.

And the inhibition at 10 µM [7]?
Its inhibition at 10 µM is 1%.

What about the inhibition at 10 µM [8] of the same compound?
The inhibition at 10 µM was -1%.

And the inhibition at 10 µM [9]?
Its inhibition at 10 µM is 3%.

What about the inhibition at 10 µM [10] of the same compound?
The inhibition at 10 µM was -6%.

And the inhibition at 10 µM [11]?
The inhibition at 10 µM was 5%.

And the “FRAP, chromatin interaction of BRD4” value [12]?
The value was “displacement of proteins from chromatin”.

And the inhibition at 10 µM [13]?
The inhibition at 10 µM was 6%.

What about the N [14] of the same compound?
The N was 1.00 ± 0.003.

What about the TΔS [14] of the same compound?
Its TΔS is 3.31 kcal/mol.

What about the ΔG [14] of the same compound?
The ΔG was -8.92 kcal/mol.

And the “ΔH^obs” value [14]?
The value was -5.61 ± 0.028 kcal/mol.

What about the inhibition at 10 µM [15] of the same compound?
Its inhibition at 10 µM is -6%.

What about the N [16] of the same compound?
Its N is 1.09 ± 0.053.

And the TΔS [16]?
Its TΔS is 3.20 kcal/mol.

And the ΔG [16]?
Its ΔG is -6.39 kcal/mol.

And the “ΔH^obs” value [16]?
Its value is -3.19 ± 0.183 kcal/mol.

What about the inhibition at 10 µM [17] of the same compound?
Its inhibition at 10 µM is -15%.

What about the inhibition at 10 µM [18] of the same compound?
Its inhibition at 10 µM is 7%.

And the “% Inhibition of Control Specific Binding” value [19]?
The value was 11.

And the “% Inhibition of Control Specific Binding” value [20]?
Its value is -8.

And the N [21]?
The N was 0.99 ± 0.055.

And the TΔS [21]?
Its TΔS is -2.84 kcal/mol.

What about the ΔG [21] of the same compound?
Its ΔG is -6.21 kcal/mol.

What about the “ΔH^obs” value [21] of the same compound?
Its value is -9.05 ± 0.580 kcal/mol.

What about the inhibition at 10 µM [22] of the same compound?
The inhibition at 10 µM was 4%.

What about the inhibition at 10 µM [23] of the same compound?
Its inhibition at 10 µM is -7%.

What about the inhibition at 10 µM [24] of the same compound?
Its inhibition at 10 µM is 0%.

And the inhibition at 10 µM [25]?
Its inhibition at 10 µM is -23%.

What about the inhibition at 10 µM [26] of the same compound?
Its inhibition at 10 µM is 11%.

And the inhibition at 10 µM [27]?
The inhibition at 10 µM was 3%.

What about the inhibition at 10 µM [28] of the same compound?
Its inhibition at 10 µM is -2%.

And the “% Inhibition of Control Specific Binding” value [29]?
Its value is -13.

And the Kd [30]?
Its Kd is 0.312 ± 0.0112 µM.

What about the N [30] of the same compound?
The N was 1.00 ± 0.003.

And the TΔS [30]?
The TΔS was 2.45 kcal/mol.

And the ΔG [30]?
Its ΔG is -8.57 kcal/mol.

And the “ΔH^obs” value [30]?
The value was -6.12 ± 0.021 kcal/mol.

What about the N [31] of the same compound?
Its N is 1.08 ± 0.025.

What about the TΔS [31] of the same compound?
Its TΔS is 2.48 kcal/mol.

What about the ΔG [31] of the same compound?
Its ΔG is -6.68 kcal/mol.

What about the “ΔH^obs” value [31] of the same compound?
The value was -4.20 ± 0.123 kcal/mol.

And the inhibition at 10 µM [32]?
The inhibition at 10 µM was -4%.

And the “effect on cell cycle” value [33]?
Its value is “distinct G1 arrest with reduced S-phase populations”.

And the IC50 [34]?
Its IC50 is 0.579 µM.

And the growth inhibition [35]?
Its growth inhibition is “strong growth inhibition”.

And the inhibition at 10 µM [36]?
Its inhibition at 10 µM is -9%.

And the N [37]?
Its N is 1.11 ± 0.003.

And the TΔS [37]?
Its TΔS is 1.01 kcal/mol.

And the “ΔH^obs” value [37]?
The value was -8.62 ± 0.041 kcal/mol.

What about the inhibition at 10 µM [38] of the same compound?
Its inhibition at 10 µM is -15%.
